Active and inactive are the calls of the source.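 The calls were made as follows: active = hERG current rise at or above blocker-only control mean plus 3 SD, readout 0 or more; inactive = the rest.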
Target: Voltage-gated inwardly rectifying potassium channel KCNH2 (Homo sapiens) (UniProt Q12809)
Test: relief of dofetilide hERG inhibition – cell-based, Ionworks automated patch clamp, CHO-hERG, secondary (AID 2103)
Settings: dofetilide IC70, at 10 µM, hits give high values

Chain of Voltage-gated inwardly rectifying potassium channel KCNH2 (Homo sapiens) (Q12809 whole entry, looked up): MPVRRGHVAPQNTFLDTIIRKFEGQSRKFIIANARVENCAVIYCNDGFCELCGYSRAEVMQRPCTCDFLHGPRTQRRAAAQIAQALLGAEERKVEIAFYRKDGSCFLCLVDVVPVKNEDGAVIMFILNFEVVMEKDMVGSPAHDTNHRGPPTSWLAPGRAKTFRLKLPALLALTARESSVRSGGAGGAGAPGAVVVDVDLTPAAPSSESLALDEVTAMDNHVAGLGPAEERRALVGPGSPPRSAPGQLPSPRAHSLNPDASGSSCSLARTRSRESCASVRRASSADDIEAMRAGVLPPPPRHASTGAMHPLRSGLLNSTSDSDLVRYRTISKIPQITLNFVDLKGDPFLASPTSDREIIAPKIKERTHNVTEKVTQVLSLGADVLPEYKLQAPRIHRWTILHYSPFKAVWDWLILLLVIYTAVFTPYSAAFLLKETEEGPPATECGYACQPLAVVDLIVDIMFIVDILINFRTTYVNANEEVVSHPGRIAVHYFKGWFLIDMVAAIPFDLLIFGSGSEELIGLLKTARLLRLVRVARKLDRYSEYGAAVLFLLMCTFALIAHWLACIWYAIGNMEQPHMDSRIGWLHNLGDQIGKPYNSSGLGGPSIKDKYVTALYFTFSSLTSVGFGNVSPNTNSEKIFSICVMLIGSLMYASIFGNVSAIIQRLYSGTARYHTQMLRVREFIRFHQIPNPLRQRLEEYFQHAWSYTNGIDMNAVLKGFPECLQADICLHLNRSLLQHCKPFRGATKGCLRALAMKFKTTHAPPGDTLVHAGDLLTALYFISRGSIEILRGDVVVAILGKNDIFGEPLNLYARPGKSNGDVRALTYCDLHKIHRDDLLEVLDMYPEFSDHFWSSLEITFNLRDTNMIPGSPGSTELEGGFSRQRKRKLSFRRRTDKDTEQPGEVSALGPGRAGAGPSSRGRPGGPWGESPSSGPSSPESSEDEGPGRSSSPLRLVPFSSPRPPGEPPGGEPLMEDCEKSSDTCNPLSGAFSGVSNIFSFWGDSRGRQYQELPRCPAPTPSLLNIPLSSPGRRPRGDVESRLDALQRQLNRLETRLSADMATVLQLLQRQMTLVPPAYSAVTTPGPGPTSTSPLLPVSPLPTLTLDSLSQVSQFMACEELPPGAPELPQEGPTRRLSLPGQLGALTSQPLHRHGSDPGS

Row | Compound | current change vs dofetilide control, less the hit threshold
1 | Cc1ccc(C(C#N)c2ccc3c(C(F)(F)F)cc(C(F)(F)F)nc3n2)cc1 (centres undefined) | -59.8% (inactive)
2 | CC1CN(S(=O)(=O)c2ccc(-c3nc4ccccc4s3)cc2)CC(C)O1 (centres undefined) | -45% (inactive)
3 | Clc1cccc(OCCCN2CCCC2)c1Cl | -77.4% (inactive)
4 | O=C(c1csc(Nc2ccccc2Cl)n1)N1CCCC1 | -45.9% (inactive)
5 | CCCN(C(=O)c1ccco1)c1nnc(-c2ccncc2)s1 | -29.1% (inactive)
6 | CCc1ccc(C(C)NC(=O)C2CCCC2)cc1 (centres undefined) | -41.5% (inactive)
7 | CCOC(=O)C1CCN(S(=O)(=O)c2cccc3nonc23)CC1 | -37.7% (inactive)
8 | CN(C(=O)c1ccc(Cl)c(S(=O)(=O)N2CCOCC2)c1)c1ccccc1C(=O)O | -64.9% (inactive)
9 | N#Cc1c(NC(=O)c2cc(-n3cnnc3)ccc2Cl)sc2c1CCCC2 | -43.1% (inactive)
10 | CC(=O)c1c(C)c2c(n1CCN(C)C)CCCC2 | -56.2% (inactive)
11 | Fc1ccc2nc(Nc3nc4c(F)cc(F)cc4s3)sc2c1 | -49% (inactive)
12 | CCOC(=O)Cc1nc2ccccc2o1 | -49.3% (inactive)
13 | O=C(O)c1ccc(Cl)cc1Nc1nc2cc(Cl)ccc2o1 | -48.7% (inactive)
14 | O=C1C2CC=CCC2C(=O)N1c1ccc(Cc2ccncc2)cc1 (centres undefined) | -31.9% (inactive)
15 | COC(=O)c1ccc(CSc2ncnc3sc(C)c(C)c23)o1 | -48.9% (inactive)
16 | COc1ccc(C(=O)Nc2ccccc2C(=O)O)cc1Cl | -54.3% (inactive)
17 | Cc1ccc(Cn2nnc3c(=O)n(CC(=O)N4CCCc5ccccc54)cnc32)cc1 | -41.2% (inactive)
18 | COC(=O)c1c(NS(=O)(=O)c2ccc3ccccc3c2)sc2c1CCCC2 | -46.2% (inactive)
19 | Cc1ccc(C(=O)Nc2nc3ccccc3c(=O)s2)cc1 | -52.6% (inactive)
20 | CCc1ccc2nc(NC(=O)c3cc(C)on3)sc2c1 | -43.6% (inactive)
21 | NC(=O)C1CCN(C(=O)c2cc3c(s2)CCCC3)CC1 | -52.8% (inactive)
22 | Cc1nc2ccccc2n1-c1ccccc1 | -51.1% (inactive)
23 | CCOC(=O)N1CCN(C(=O)c2ccc(CN(c3ccc(C)c(C)c3)S(C)(=O)=O)cc2)CC1 | -30.1% (inactive)
24 | CCOC(=O)N1CCN(C(=O)c2ccc(Cl)c(S(=O)(=O)Nc3ccccc3)c2)CC1 | -58.5% (inactive)
25 | CN(Cc1ccccc1)C(=O)CCc1ccccc1 | -53.5% (inactive)
26 | Cc1ccc(C)c2sc(NC(=O)c3nc4ccccc4s3)nc12 | -46.9% (inactive)
27 | Cc1nonc1CN(C)C(=O)c1ccc(OC2CCN(Cc3ccccn3)CC2)cc1 | -69.9% (inactive)
28 | CC(C)Oc1c(Cl)cc(CNC(C)(C)CO)cc1Cl | -52.1% (inactive)
29 | CCOC(=O)c1c(C)[nH]c(C)c1S(=O)(=O)N1CCCCC1 | -31.9% (inactive)
